The term Ki denotes the equilibrium dissociation constant of an inhibitor or competing ligand from its target. A higher Ki goes with a looser hold on the target.

Data on two compounds can be found in paper PMC4813465, “Selective Inhibition of the Mitochondrial Permeability Transition Pore Protects against Neurodegeneration in Experimental Multiple Sclerosis” (The Journal of Biological Chemistry, 2015).

In data set [1] the test system is mitochondria of rat cortical neurons and isolated liver mitochondria. The experiment in a line: Mitochondrial functional parameters (membrane potential, oxygen consumption, ATP production) in cultured rat neurons and isolated mitochondria. It is filed as cell-based. As for the experimental part: Oxygen consumption was measured using Oroboros Oxygraph-2K as described previously ([62]). Prior to the assay, the Oxygraph chambers were calibrated with Miro5 buffer (0.5 mM EGTA, 3 mM MgCl2·6H2O, 60 mM potassium lactobionate, 20 mM taurine, 10 mM KH2PO4, 20 mM HEPES, 110 mM sucrose, 1 g/liter BSA (essentially fatty acid-free)). Isolated mitochondria were suspended in Miro5 (at 100–200 μg/ml) and loaded into the chamber together with substrates (malate, 2 mM; glutamate, 10 mM), and the O2 flow signal was allowed to stabilize to the basal respiration rate (∼10 min). […] Data were analyzed by subtracting the antimycin A respiration rate to give mitochondrial specific O2 flow and were then expressed as a percentage of the basal O2 flow.
Rat cortical neurons, cultured for 8–9 days, were incubated for 40 min at 37 °C with the cell-permeant cationic dye tetramethylrhodamine methyl ester (25 nM), and fluorescence was measured using the ImageXpress Micro XL system (Molecular Devices). […] The minimum value after the addition of compound (prior to the addition of FCCP) was taken, and this was expressed as a percentage (using the baseline as 100% and FCCP as 0%) and then normalized to DMSO (100%).
Freshly isolated mouse liver mitochondria were suspended in MSK buffer containing 10 μg/ml rhodamine 123 (dequench mode), at a concentration of 500 μg/ml, and plated in an opaque black 96-well plate. […]

The subject of the next data set is rat cortical neurons. The experiment in a line: Mitochondrial membrane potential (TMRM) in rat cortical neurons. The format is cell-based. The source says: The minimum value after the addition of compound (prior to the addition of FCCP) was taken, and this was expressed as a percentage (using the baseline as 100% and FCCP as 0%) and then normalized to DMSO (100%).

Another data set addresses TRIM-CypA (Homo sapiens, UniProt P62937+Q6PIZ9). As for the experimental part:
Viral supernatant was collected 48 h post-transfection and stored at −80 °C.
To generate CRFK cells stably expressing N-terminally HA-tagged TRIM-CypA from an EXN-based vector, murine leukemia virus (MLV) vector was prepared as above, using pMDG, CMVi MLV gag-pol expression vector, and γ-retroviral expression vector encoding a fusion protein comprising human CypA downstream of owl monkey TRIM5 RBCC (EXN-TRIM-CypA) ([67]). CRFK cells, which are null for TRIM5α activity ([68]), were then transduced with vector, followed by selection of cells in 1 mg/ml G418 (Invitrogen).
Infectivity was measured by flow cytometry 48 h postinfection.

Data set [2] concerns splenocytes from MOG 35-55 immunized ABH mice. Briefly: Myelin antigen (MOG 35-55)-induced T cell proliferation. As to conditions: MOG residues 35–55, 5 μg/ml. It is filed as cell-based, mouse. As for the experimental part:
ABH mice were injected subcutaneously in the flank with 100 μg of myelin oligodendrocyte glycoprotein (MOG) peptide residues 35–55 (Cambridge Research Biochemicals Ltd., Billingham, UK) emulsified in Freund's adjuvant containing 200 μg of Mycobacterium tuberculosis H37Ra (Difco, Becton Dickinson, Oxford, UK) on days 0 and 7 ([69]). Spleens were collected and prepared and analyzed as above except that mitogens were replaced with 5 μg/ml MOG 35–55 peptide, and cells were incubated for 72 h before the addition of tritiated thymidine.

In data set [3] the test system is T cell proliferative response in draining auricular lymph node. The experiment in a line: In vivo T cell proliferation, oxazolone contact hypersensitivity. The arrangement: species or system mouse. As for the experimental part: The contact sensitizer 4-ethoxymethylene-2-phenyl-2-oxazolin-5-one (oxazolone; Sigma) was dissolved (25 mg/ml) in 4:1 acetone/olive oil. Mice (n = 3/group) received epicutaneous application of either 25 μl of 2.5% oxazolone or acetone/olive oil on the dorsum of the ear on day 0 ([70]). The draining auricular lymph nodes were removed 3 days later, and the induced proliferative response was assessed as described previously. Briefly, 5 × 10^5 cells/well were cultured in RPMI 1640 medium with glutamate (Gibco®, Invitrogen Ltd., Paisley UK), supplemented with 0.5 mM sodium, in round-bottomed 96-well plates overnight at 37 °C in a humidified atmosphere of 5% CO2 in the presence of 1 μCi of [^3H]thymidine (PerkinElmer Life Sciences) per well. DNA synthesis was estimated using β-scintillation counting as above. […] Results are expressed as mean ± S.E. thymidine incorporation counts/min.

Data set [4] deals with experimental autoimmune encephalomyelitis. Briefly: Relapsing-progressive EAE in ABH mice (neurological score, RotaRod, neurofilament ELISA). The format is in vivo, mouse. As for the experimental part:
Mice were injected subcutaneously with 1 mg of freeze-dried mouse spinal cord homogenate (SCH) in Freund's adjuvant on days 0 and 7 as described previously ([71]). After the initial paralytic disease and subsequent remission, a relapse was induced by a further injection of SCH in Freund's incomplete adjuvant on day 28 to induce a relapse 7 days later ([71]). Studies were randomized, blinded, and powered as described previously ([71]). Neurological scores were graded as 0 = normal, 1 = limp tail, 2 = impaired righting reflex, 3 = hind limb paresis, 4 = complete hind limb paralysis, and 5 = moribund/death ([71]). Results are expressed as mean ± S.E. maximum or minimum neurological score and mean day of onset ± S.D. The clinical scores are presented as the mean daily neurological score ± S.E. Differences in clinical scores were assessed using non-parametric, Mann-Whitney U statistics ([71]). Motor control and coordination were assessed on an accelerating (4–40 rpm, accelerating at 6 rpm/25 s) RotaRod (ENV-575M, Med Associates Inc., St. Albans, VT) as described previously ([71]). This was performed 1 day before induction of relapse and at the termination of the experiment on day 45. RotaRod assessment was performed blinded to treatment. Animals were randomized to vehicle or treatment based on their RotaRod scores. Results are expressed as mean ± S.E. time that animals maintained rotarod activity. Differences in rota activity and quantitative neurofilament ELISA were assessed using Student's t test incorporating tests for equality of variance using Sigmaplot (Systat Software, Inc., San Jose, CA) ([71]).
At the end of the experiment, the spinal cord was removed, and an ELISA for heavy chain neurofilament on spinal cord was performed. Total nerve content of each spinal cord was estimated following calibration against neurofilament protein standards as described previously ([71], [72]).
Neurofilament level as a validated correlate of spinal cord axonal content as determined by histology was determined as follows. […] Tissues were snap-frozen and stored at −80 °C before homogenization. Tissues were homogenized in a glass homogenizer in 1 ml/100 mg of spinal cord tissue wet weight homogenization buffer (0.2 mM PMSF, 1 mM EDTA, 1 mM EGTA, 4 M urea, 10 mM Tris-HCl (Sigma), pH 7.2) plus 1:100 HALT protease inhibitor mixture (Thermo Fisher Scientific) and further homogenized by sonication twice for 10 s (Cole-Parmer Instruments, Vernon Hills, IL). Samples were spun down at 13,000 rpm in a bench top centrifuge (Eppendorf), and the supernatant was collected and stored at −80 °C before neurofilament determination. Samples were thawed on ice, and an ELISA for heavy chain neurofilament was performed. Briefly, a 96-well plate was coated overnight at 4 °C with capture antibody (1:5000; SMI35 anti-neurofilament H, Cambridge Bioscience, Cambridge, UK) in coating buffer (0.15 M Na2CO3, 0.35 M NaHCO3 (Sigma), pH 9.6). Following one wash in wash buffer (150 mM NaCl, 10 mM Tris-HCl, 0.1% Tween 20 (Sigma), pH 7.5), nonspecific binding was blocked by incubation with 5% bovine serum albumin (Sigma) in wash buffer for 1 h at room temperature. Following a wash step, samples and standards (porcine neurofilament heavy chain, Chemicon International) were diluted in wash buffer with 1% bovine serum albumin and incubated on the plate for 1 h at room temperature. Following five wash steps, the detector antibody was applied (1:1000 rabbit anti-NF200, Sigma) and incubated for a further 1 h at room temperature. The plate was washed five times, and the reporter antibody was applied (1:1000 swine anti-rabbit HRP conjugate, DAKO). Following a final five washes, tetramethylbenzidine substrate (Sigma) was applied, and color production was measured on a BioTek Synergy HT plate reader at 450 nm.
In general terms: Falling from the rotarod earlier than controls is read as motor impairment.

The target of data set [5] is Ca2+-mediated PT pore formation (Mus musculus, UniProt Q99KR7). As to conditions: liver mitochondria.
Chain of Ca2+-mediated PT pore formation (Q99KR7 30-206): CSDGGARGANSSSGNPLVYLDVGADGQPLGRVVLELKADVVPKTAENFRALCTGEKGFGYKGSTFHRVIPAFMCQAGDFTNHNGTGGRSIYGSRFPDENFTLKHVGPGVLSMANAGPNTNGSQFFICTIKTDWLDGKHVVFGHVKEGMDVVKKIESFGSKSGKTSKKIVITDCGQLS
Procedure: Briefly, C57BL/6J WT or CypD^−/− ([63]) male mice of 3–6 months were sacrificed by cervical dislocation, and their liver was removed and placed immediately into ice-cold isolation buffer (250 mM mannitol, 5 mM HEPES, 0.5 mM EGTA, pH 7.4). At 4 °C, the liver was rinsed in PBS to remove excess blood, and any fat and connective tissue was eliminated. PBS was then replaced with isolation buffer containing 1 mM PMSF, and the liver was chopped into pieces (∼2 mm in length). Tissue was then homogenized in this solution until no solid matter remained and then centrifuged at 800 × g for 10 min at 4 °C. […] Protein levels were quantified using a Thermo Scientific BCA protein quantification assay, as per the manufacturer's instructions.
Isolated mitochondria were resuspended (500 μg of protein/ml) in MSK buffer (75 mM mannitol, 25 mM sucrose, 5 mM potassium phosphate monobasic, 20 mM Tris-HCl, 100 mM KCl, and 0.1% bovine serum albumin, pH 7.4) supplemented with 10 mM succinate, 1 μM rotenone, and 1 μM Fluo5N. […] Compounds were incubated for 10 min before the plate was assayed in a Fluostar Optima plate reader, using excitation/emission filters at 480/520 nm; CaCl2 was injected approximately every 6.5 min for 80 min (12 total injections, final concentration of 75 μM). […] Percentage inhibition for each [compound] was then calculated as the percentage of the corresponding value for the untreated condition. […]
Another data set concerns the target CypA (Homo sapiens, UniProt P62937). Briefly: Fluorescence polarization cyclophilin binding assay, CypA. The following applies: probe 45 nM, enzyme 40 nM. In general terms: In fluorescence polarisation assays a small probe gives low polarisation when free and higher when bound to something large.
For another data set, the target named is K133I CypD (Homo sapiens, UniProt P30405, K175I). The experiment in a line: Fluorescence polarization cyclophilin binding assay, CypD. As to conditions: probe 45 nM, enzyme 40 nM.
Chain of K133I CypD (P30405 43-207 K175I): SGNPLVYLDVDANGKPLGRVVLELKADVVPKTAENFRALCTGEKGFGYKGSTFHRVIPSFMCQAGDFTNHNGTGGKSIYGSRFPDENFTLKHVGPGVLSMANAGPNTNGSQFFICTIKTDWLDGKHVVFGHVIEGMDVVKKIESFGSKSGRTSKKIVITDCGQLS
Setting [6] is: before treatment (baseline of the JW47 group).

Chain of TRIM-CypA (P62937 2-165, one chain of several): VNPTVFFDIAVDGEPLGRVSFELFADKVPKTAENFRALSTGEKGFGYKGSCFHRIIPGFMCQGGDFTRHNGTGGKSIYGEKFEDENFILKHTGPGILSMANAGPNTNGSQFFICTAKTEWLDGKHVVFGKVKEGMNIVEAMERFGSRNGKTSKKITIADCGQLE
Chain of CypA (P62937 whole entry, species assumed): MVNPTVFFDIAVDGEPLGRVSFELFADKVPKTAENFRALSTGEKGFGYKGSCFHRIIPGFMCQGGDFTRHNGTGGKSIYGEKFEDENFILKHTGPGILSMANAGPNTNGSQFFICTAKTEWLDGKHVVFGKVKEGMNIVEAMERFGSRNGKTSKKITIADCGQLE
Procedure for K133I CypD: Titration of a single probe concentration against different enzyme concentrations was used to determine the dissociation constant (Kd). From this we also determined the enzyme concentration that would give a high enough polarization signal to measure binding affinities.
At least three replicates were used for each experiment. The percentage of DMSO in the total solution should remain lower than 1%. […] Measurements were taken after gain adjustment of control sample and 30-min incubation with a xenon flash light with filter settings for 485-nm excitation and 520-nm emission.

On to `CC[C@@H]1NC(=O)[C@H]([C@H](O)[C@H](C)C/C=C/CCC[n+]2cccc3ccccc32)N(C)C(=O)[C@H](C(C)C)N(C)C(=O)[C@H](CC(C)C)N(C)C(=O)[C@H](CC(C)C)N(C)C(=O)[C@@H](C)NC(=O)[C@H](C)NC(=O)[C@H](CC(C)C)N(C)C(=O)[C@H](C(C)C)NC(=O)[C@H](CC(C)C)N(C)C(=O)CN(C)C1=O` [JW47, [Gly-(1S,2R,E)-8-quinolinium-1-hydroxy-2-methyloct-4-ene]^1 CsA], for which the “concentration up to which mitochondrial membrane potential, oxygen consumption and ATP production were not affected” value in [1] is “up to 200 nM”. In addition, the “effect on mitochondria in cortical neurons” value is on record as “not affected” in the data set with rat cortical neurons (40 nM) and “significantly depolarized” in the data set with rat cortical neurons (1 μM). Further, in the data set on rat cortical neurons (rat cortical neurons), the “concentration that inhibited neuronal mitochondrial membrane potential” value worked out at 1000 nM. On TRIM-CypA, the “rescue of HIV-1 infectivity in TRIM-CypA cells” value is “no activity”. In addition, the “immunosuppressive activity in antigen-driven proliferation assay” value in data set [2] was “markedly less immunosuppressive activity compared with CsA”. Also, the entries for the “effect on T cell response, contact hypersensitivity model” value in [3] (0.1 mg/kg intraperitoneally daily), in data set [3] (1 mg/kg intraperitoneally daily) and in data set [3] (10 mg/kg intraperitoneally daily) were “no effect”, “no effect” and “inhibited the T cell response”, respectively. Besides, the “incidence of disease (relapse)” value in [4] (1 mg/kg intraperitoneally daily from day 33) is listed as 14 of 14. The “onset of induced relapse” value in data set [4] (1 mg/kg intraperitoneally daily, SCH injection day 28, mean ± S.D.) is listed as 34.5 ± 0.7 days. Besides, the “rotorod activity during the second remission after relapse” value in data set [4] (1 mg/kg intraperitoneally daily, day 45) turned out to be 135.0 ± 42.9 s. Also, the “minimal neurological score during the second remission” value in data set [4] (1 mg/kg intraperitoneally daily, p < 0.001 vs vehicle) amounted to 1.4 ± 0.3. Further, the “maximal severity disease score” value in data set [4] (1 mg/kg intraperitoneally daily, score 0–5, mean ± S.E.) is 3.9 ± 0.1. Further, the “loss of nerves and axons within the spinal cord, neurofilament ELISA” value in [4] (1 mg/kg intraperitoneally daily, vs vehicle) is reported as “lost significantly (p < 0.01) fewer nerves”. The “minimal clinical score during the first remission” value in data set [4] (setting [6]) was determined as 0.6 ± 0.1. Moreover, the “rotorod activity on day 27 during the first remission” value in data set [4] (setting [6]) came to 168.8 ± 21.8 s. The “effect on CRC, mitochondria from WT mice” value in data set [5] was “significantly increased”.
Take `C/C=C/C[C@@H](C)[C@@H](O)[C@H]1C(=O)N[C@@H](CC)C(=O)N(C)[C@H](Cc2ccc(C(=O)O)cc2)C(=O)N(C)[C@@H](CC(C)C)C(=O)N[C@@H](C(C)C)C(=O)N(C)[C@@H](CC(C)C)C(=O)N[C@@H](C)C(=O)N[C@H](C)C(=O)N(C)[C@@H](CC(C)C)C(=O)N(C)[C@@H](CC(C)C)C(=O)N(C)[C@@H](C(C)C)C(=O)N1C` [SmBzCsA]: the inhibition constant (Ki) is 236 ± 8.4 nM on CypA and 202 ± 14.1 nM on K133I CypD.
